Laboratory results: patent US9375436B2, “Androgen treatment in females” (priority 2004, dated 2016)
Values joined by “and” are separate entries in the source; they are usually repeats but may differ in a detail not shown here. Equal entries are not always repeated.

Key:
[1] = system: person with evidence of decreased ovarian reserve; conditions: human, in vivo
[2] = system: women with diminished ovarian function; test: Case control study of clinical pregnancy with DHEA supplementation (Example 7); assay type: in vivo, human
Experimental: A case control study of 190 women over 30 years old with diminished ovarian function were studied between 1999 and December 2005. The study group included 89 patients with a mean age of about 41.6 who used supplementation of about 75 mg daily of oral, micronized DHEA for up to four months prior to entry into IVF. […] The primary outcome was clinical pregnancy after the patient's initial visit.
Ovarian stimulation was identical for study and control groups and consisted of microdose agonist flare, followed by maximal dosage gonadotropin stimulation, using about 300-450 IU of FSH and about 150 IU of HMG. Study patients received DHEA continuously until a positive pregnancy test was obtained or until the patient dropped out of treatment.
In an additional study, a retrospective analysis of a 190 women with diminished ovarian function above 30 years old, who were treated between 1999 and December 2005 was completed to assess the impact of DHEA supplementation on the time interval to the establishment of pregnancy.
A prequalification for each patient's diagnosis of diminished ovarian function was either a sub-diagnosis of premature ovarian aging (POA) or a sub-diagnosis of diminished ovarian reserve (DOR). POA was, in turn, defined as baseline follicle stimulating hormone (b-FSH), on Day 2/3 of a cycle as <12 mIU/ml, but exceeding the 95% CI of the mean value for the patient's age group.
Specifically, this meant b-FSH≧7.4 mIU/ml at age 30-34 years and ≧8.6 mIU/ml at age≧35 years. DOR, in turn, was defined as b-FSH≧12 mIU/ml and/or a baseline estradiol level≧75 pg/ml. 49 patients were confirmed with POA and 52 patients were confirmed with DOR, creating a control group of 101 women. Because of potential impending loss of ovarian function in the control group women, the control group women were treated with IVF as soon as possible.
During the time studied, the study group consisted of 89 patients, with diminished ovarian function (POA 24, DOR 65). Each person in the study group was placed on DHEA supplementation. The DHEA supplementation included administering about 25 mg of (pharmaceutical grade) micronized DHEA, three times daily, for up to about four months (mean 3.8±0.3 months). […] This delay of IVF treatment allowed the possibility of spontaneously conceived pregnancies.
Ovarian stimulation was identical for study and control groups and comprised microdose agonist flare, followed by maximal dosage gonadotropin stimulation, using about 300-450 IU of FSH and about 150 IU of HMG. Study patients received DHEA continuously until a positive pregnancy test was obtained or until the patient dropped out of treatment. DHEA and DHEAS levels were monitored monthly, and patients were interviewed at each visit about adverse reactions to DHEA supplementation.
In order to assess the impact of DHEA supplementation on time interval to the establishment of pregnancy, this study was designed as a life-table analysis, measuring not only total pregnancy rates but also the time between initial presentation and end of last treatment intervention.
Each recorded clinical pregnancy, defined as positive fetal cardiac activity on ultrasound examination after 6 weeks, was recorded as a positive outcome. Patients who continued treatments beyond the study period or stopped treatments were considered right censored data at the end of the study period, or at treatment cessation, respectively.
A Cox regression analysis was used to evaluate time-to-event. The model that we used stratified for level of ovarian reserve (POA and DOR) and adjusted for age, day 3 FSH, fertility treatments (none, Intrauterine Insemination and controlled ovarian hyperstimulation (IUI/COH), or IVF) and race/ethnicity. A trend in pregnancy rates over months of DHEA exposure with an interaction term for time and DHEA months of exposure was tested. SPSS for Windows, Standard version 10.0.7 (SPSS Co. Chicago, Ill.) was utilized for data analysis. Continuous outcomes are presented as mean±1 standard error. […]

[3] = system: proven poor responders to ovarian stimulation with gonadotropins; conditions: 80 mg micronized DHEA for two months; five poor responders, six IVF cycles; cited from earlier work
[4] = DHEA group, intrauterine insemination, no IVF
[5] = DHEA group, no other treatment than DHEA

## C[C@]12CC[C@H](O)CC1=CC[C@@H]1[C@@H]2CC[C@]2(C)C(=O)CC[C@@H]12 [DHEA, Dehydroepiandrosterone]
[1]
  (log) peak E2 increase: 0.47±0.06
  aneuploid embryos amongst 10 embryos (PGD): nine
  average embryo cell count: 6.83±1.37 and 7.2±1.15
  cryopreservable embryo yield increase: 1.4±0.14 embryos per cycle
  cryopreservable embryos: 11
  embryo morphology: 3.6±0.5 and 3.7±0.5
  embryos in a cycle: 9 and 10 and 11
  embryos of high enough quality to undergo cryopreservation: 49
  embryos produced: 16
  oocyte yield increase: 2.5±0.34 oocytes per cycle
  oocytes in a cycle: 13 and 16 and 19
  oocytes retrieved: 17
  total viable embryos cryopreserved: 50
[1]; po
  oocytes produced: 19
[2]; Cox regression, 95% CI 1.2 to 11.8
  proportional hazards ratio for clinical pregnancy relative to controls (HR): 3.8
[2]; DHEA group
  Implantation (FH/Embryos trans): (11.4%)
  Implantation (FH/Embryos trans) (n/N): 13/101
  Miscarriage (Per clinical Pregnancy) (n/N): 5 of 25 and 5/25
  Normal Day 3 embryos: 2.4±0.03 and 2.4 ± 0.3
  Oocytes: 3.9 ± 0.4
  Positive hCG (>25 mIU/ml): (30%)
  Positive hCG (>25 mIU/ml) (n/N): 26/88
  Transferred embryos: 2.1±0.2
  pregnancies established spontaneously (no IVF treatment) out of the 25: 12
[2]; DHEA group, all 89 patients
  Clinical Pregnancy (n/N): 25 of 89 and 25/89
[2]; [4]
  Clinical Pregnancy, IUI/COH: (66.7%)
  Clinical Pregnancy, IUI/COH (n/N): 6 of 9 and 6/9
[2]; [5]
  Clinical Pregnancy, No Treatment: (35.3%)
  Clinical Pregnancy, No Treatment (n/N): 6 of 16 and 6/16
[2]; DHEA group, patients reaching IVF
  Clinical Pregnancy, IVF (n/N): 13/64
[2]; DHEA group, about 25 mg three times daily, 3.8 ± 0.3 months
  Cancellation (IVF) (n/N): 9/63
[2]; DHEA versus control
  decrease of the miscarriage rate: about 44%
  increase of the percentage of clinical pregnancies: about 157%
[2]; approximately two months after initiation of treatment
  mean DHEA and DHEAS levels at cycle day 2: in the low normal ranges
[2]; correction for time dependent variables, 95% CI 1.6 to 14.2
  proportional hazards estimation of pregnancy (HR), extended Cox models: 4.8
[3]
  response to ovarian stimulation compared with prior unsupplemented cycle: improved responsiveness
